{"source": "patent US11759530B2", "about": "“TKI permeability enhancers” (City of Hope, priority 2014, dated 2023)", "key": {"HCT116-GFPmiR21 cells [1]": {"tested_on": "HCT116-GFPmiR21 cells", "assay": "Drug screen: EGFP reactivation by anti-miR21 oligo plus compound (ASO uptake and function)", "assay_type": "cell-based, human", "details": "for TKI effect on oligo penetration and EGFP produced per cell: TKI 100 nm-1 uM added to the media in addition to the oligo; for ASO uptake (eGFP activation), FIG. 3: anti-mir21 + drug"}, "CK1 (S. pombe)": {"tested_on": "CK1 (S. pombe)", "details": "cited from earlier work"}, "[2]": {"tested_on": "androgen receptor (AR full length and AR variant 7) in LNCaP, LAPC-4, 22RV1 cells", "assay": "Androgen receptor expression in prostate cancer cell lines", "assay_type": "cell-based", "experimental": "Panels A-C, Prostate cancer cell lines LNCaP (A), LAPC-4 (B), and 22RV1 (C) were treated with inhibitor at indicated concentrations for indicated incubation times. FL, AR full length; V7, AR variant 7.\n(§1) FIG. 10: TKI synergizes AR-ASO against AR expression and the AR signal pathway. […] MTS assay of LNCaP treated for 3 days with 1 uM TKI or 1 uM AR-ASO (AR-ASO-1) in the presence of the titrations of the paired drug.\nSimilar results have been obtained with Bcl-2."}, "LNCaP cells": {"tested_on": "LNCaP cells", "assay": "MTS cytotoxicity assay of TKI plus AR-ASO", "assay_type": "cell-based", "details": "3 days, 1 uM TKI or 1 uM AR-ASO with titration of the paired drug", "experimental": "as §1"}, "[3]": {"tested_on": "HCT-116 EGFP-miR21 tumor microspheroids", "assay": "Oligo penetration into tumor microspheroids, confocal microscopy", "assay_type": "cell-based, human", "experimental": "HCT-116 cells were transfected with a plasmid that expresses EGFP under the control of mir-21. When the cells express endogenous mir-21, the expression of EGFP is silenced. These cells were grown into tumor microspheroids, which were treated with an anti-mir21 mix mer oligonucleotide under gymnotic conditions (i.e., no carriers, no conjugations). When the anti-mir21 mix mer (product of Santaris Pharma, Horsholm, Denmark) enters the cells, it prevents the binding of the endogenous mir21 to its complementary sites on the 3′UTR of the EGFP gene. EGFP is then expressed and the cells glow green. Applicants discovered, by confocal microscopy, that the penetration of the anti-mir21 into the tumor microspheroid was only approximately 3 cells deep. Applicants verified this by treating the microspheroids with a Cy5-labeled anti-Bcl-2 phosphorothioate LNA gapmer. Here again, the penetration was only about 3 cell layers deep. Applicants then wanted to increase the oligo penetration and increase the amount of EGFP produced per cell. Applicants then began to screen a library of tyrosine kinase inhibitors (TKIs). These were added (100 nm-1 uM) to the media in addition to the oligo. Applicants examined 4 TKIs: Sorafenib was ineffective. […] This work has tremendous practical utility as it provides a way of screening for active oligos in a non-animal model, and provides a way to improve oligo penetration in tumors.\nThe HCT-116 EGFP-miR21 stable, clonal cell line was used to create the microspheroids in 96-well hanging-drop plates (Perfecta 3D, Biometrix Inc., Ann Arbor, Mich.). Following trypsinization, the cells were lifted and re-suspended at a density of 3×10^5 cells in 300 μL DMEM (Irvine Scientific, Santa Ana, Calif., USA) supplemented with 10% fetal calf serum (Irvine Scientific), 1 mM L-glutamine, 5% non-essential amino acids. To improve the 3D structure of the spheroids, 2.5% Matrigel™ can be added to the cell seeding solution. […]\nAll microspheroids were incubated for additional 5 days and analyzed with a Zeiss confocal microscope. […]"}, "[4]": {"tested_on": "IL-1 production in human monocytes", "details": "read-out: IC50 for inhibiting IL-1 production in human monocytes; cited from earlier work"}, "[5]": {"tested_on": "NIH 3T3 mouse fibroblasts", "details": "read-out: IC50 for TGF-b-dependent cellular growth in NIH 3T3 mouse fibroblasts; cited from earlier work"}, "mink lung cells": {"tested_on": "mink lung cells", "details": "read-out: IC50 for transcription activation in mink lung cells; cited from earlier work"}, "PI3-Kα and δ": {"tested_on": "PI3-Kα and δ", "details": "read-out: IC50 for PI3-Kα and δ; unit given as mM; cited from earlier work"}, "HCT116-GFPmiR21 cells [6]": {"tested_on": "HCT116-GFPmiR21 cells", "assay": "ASO intracellular release: anti-miR21 pretreatment, wash, then compound", "assay_type": "cell-based, human", "details": "then drug", "experimental": "A robotic screening of a library of tyrosine kinase inhibitors (TKIs) was performed. […] These compounds are under investigation with the aim of determining the mechanism and the lowest concentration required for maximal enhancement of ASO function. For the 14 compounds identified as active in the initial screen, EGFP reactivation was monitored every day for up to 6 days. To determine if any compound affected ASO intracellular release, cells were first treated with 1 μM anti-miR21 PS-mixmer. The next day the media was removed and cells were washed twice with PBS. After adding fresh media the cell were treated with 1 μM of each active compound. Since ASO uptake had already occurred, any enhancement of EGFP expression in active compound-treated cells would be an indication of improved ASO intracellular release."}, "IP3-K": {"tested_on": "IP3-K", "details": "cited from earlier work"}}, "note": "“Also recorded” adds a separate entry of the source.", "data": [{"smiles": "CNC(=O)c1cc(Oc2ccc(NC(=O)Nc3ccc(Cl)c(C(F)(F)F)c3)cc2)ccn1", "note": "[Sorafenib]", "values": [{"measurement": "TKI effect on oligo penetration and EGFP produced per cell", "setting": "HCT116-GFPmiR21 cells [1]", "value": "ineffective"}, {"measurement": "ASO uptake (eGFP activation), FIG. 3", "setting": "HCT116-GFPmiR21 cells [1]", "value": "Decreased uptake"}]}, {"smiles": "NC(=O)c1ccc(-c2nc(-c3ccc4c(c3)OCCO4)c(-c3ccccn3)[nH]2)cc1", "values": [{"measurement": "IC50", "setting": "CK1 (S. pombe)", "value": "[…]"}]}, {"smiles": "O=C1Nc2cc(Br)ccc2/C1=C1/Nc2ccccc2/C1=N/O", "note": "[Compound 6-BIO]", "values": [{"measurement": "Androgen receptor downregulation", "setting": "[2]; LNCaP, LAPC-4, 22RV1, AR full length and AR-V7", "value": "can downregulate both forms; also recorded: downregulates"}, {"measurement": "Synergy with AR antisense oligo against AR expression and AR signal pathway", "setting": "[2]; combined with AR-ASO, LNCaP and LAPC-4, 2 days", "value": "synergistic; also recorded: synergizes"}, {"measurement": "Cytotoxicity of the combination of TKI and AR-ASO (MTS assay)", "setting": "LNCaP cells", "value": "did not show increased cytoxicity"}]}, {"smiles": "COc1cccc2c1C(=O)c1c(O)c3c(c(O)c1C2=O)C[C@@](O)(C(=O)CO)C[C@@H]3O[C@H]1C[C@H](N)[C@H](O)[C@H](C)O1", "note": "[Doxorubicin]", "values": [{"measurement": "Penetration into tumor spheroids (confocal Z-stacks)", "setting": "[3]; FIG. 4-6", "value": "more uniform penetration"}]}, {"smiles": "CS(=O)(=O)c1ccc(-c2nc(-c3ccc(F)cc3)c(-c3ccncc3)[nH]2)cc1", "values": [{"measurement": "IC50", "setting": "[4]", "value": 200, "unit": "nM"}]}, {"smiles": "c1ccc(-c2n[nH]cc2-c2ccnc3ccccc23)nc1", "values": [{"measurement": "IC50", "setting": "[5]", "value": 89, "unit": "nM"}, {"measurement": "IC50", "setting": "mink lung cells", "value": 47, "unit": "nM"}]}, {"smiles": "O=C1NC(=O)/C(=C/c2ccc3c(c2)OC(F)(F)O3)S1", "values": [{"measurement": "IC50", "setting": "PI3-Kα and δ", "value": "> 0.02", "unit": "mM"}]}, {"smiles": "Cc1cn(-c2cc(NC(=O)c3ccc(C)c(Nc4nccc(-c5cccnc5)n4)c3)cc(C(F)(F)F)c2)cn1", "note": "[nilotinib, 4-methyl-N-[3-(4-methyl-1H-imidazol-1-yl)-5-(trifluoromethyl)phenyl]-3-[(4-pyridin-3-ylpyrimidin-2-yl)amino]benzamide]", "values": [{"measurement": "TKI effect on oligo penetration and EGFP produced per cell", "setting": "HCT116-GFPmiR21 cells [1]", "value": "shown to have activity"}]}, {"smiles": "Cc1ccc(NC(=O)c2ccc(CN3CCN(C)CC3)cc2)cc1Nc1nccc(-c2cccnc2)n1", "note": "[imatinib, 4-[(4-methylpiperazin-1-yl)methyl]-N-(4-methyl-3-{[4-(pyridin-3-yl)pyrimidin-2-yl]amino}phenyl)benzamide]", "values": [{"measurement": "ASO release (eGFP activation), FIG. 3", "setting": "HCT116-GFPmiR21 cells [6]", "value": "increased release"}, {"measurement": "Penetration of the anti-mir21 oligo in tumor microspheroids", "setting": "[3]; TKI 100 nm-1 uM with oligo", "value": "increased penetration"}, {"measurement": "Penetration of the Cy5-labeled anti-Bcl-2 oligo in tumor microspheroids", "setting": "[3]; TKI with oligo", "value": "increased penetration was also seen"}, {"measurement": "ASO uptake (eGFP activation), FIG. 3", "setting": "HCT116-GFPmiR21 cells [1]", "value": "Increased uptake"}, {"measurement": "EGFP expression in tissue culture", "setting": "HCT116-GFPmiR21 cells [1]; with anti-mir21 oligo, TKI 100 nm-1 uM", "value": "dramatically increased"}]}, {"smiles": "O=[N+]([O-])c1ccc(CNc2nc(NCc3cccc(C(F)(F)F)c3)nc3[nH]cnc23)cc1", "values": [{"measurement": "IC50", "setting": "IP3-K", "value": 10.2, "unit": "µM"}]}]}
